Reference: patent US12122811B2, “BDNF mimetic peptide amphiphiles” (Northwestern University, priority 2018, dated 2024)
Positions of bridges follow the written chain, without caps; N, C: chain ends. Non-standard residues stand in square brackets, D forms with d. Residues, ends and D or L forms follow the SMILES beside them. Chains are numbered I, II in the order given. *: point of attachment. PEG6 = NCCOCCOCCOCCOCCOCCOCCC(=O)O; Palmitoyl = CCCCCCCCCCCCCCCC(=O)*

Assays:
[1] = tested on: cortical neurons; test: Infiltration and maturation of cortical neurons on 3D PA gel scaffolds; format: cell-based, mouse; settings: neurons on gels, one week
Experimental: Gels were made using annealed PAs prepared with methods described herein 1. BDNF native protein or BDNF peptide were incorporated by mixing at 10 nM or 0.5 uM respectively, with E2 Filler PA gel at 1 wt % while it was in its liquid state. Silicon isolators with adhesive (Invitrogen) were placed on PDL coated glass coverslips. 70 μL of PA liquid was pipetted into the circular silicon well and a Transwell insert was placed flush with the top of the well of the silicon insert. This step ensured a flat, even thickness for all gels. Gelling solution comprised of 125 mM NaCl, 3 mM KCl, and 25 mM CaCl2 was pipetted into the Transwell insert and allowed to slowly soak down into the material from the top. The insert prevented the gel from swelling more than the thickness of the silicon isolator. All gels were incubated at 37° C. for 5 min before removing the Transwell insert.
Infiltration Study. Gels were prepared as described in 2.1.2. Gels were then rinsed with media one time before cells were seeded on top at a density of approximately 42,000 cells/well. Cells were cultured for one week in vitro. Half of the gels were analyzed by patch clamp analysis (see section 3.4.9. Other gels were fixed with 4% PFA to perform infiltration studies. Cell were stained for MAP2, TUJ-1 and DAPI using immunocytochemistry methods described previously. Confocal microscopy was used to make z-stack reconstructions of each gel. The MultiMeasure function in the ROI manager of ImageJ was used to measure the depth of pixels for each channel which was then plotted as intensity vs depth in the gel. The average intensity of MAP2 was measured by averaging the mean intensities obtained from maximum intensity projections of z-stacks images of gels.

[2] = tested on: cortical neurons; test: Whole-cell current-clamp (patch clamp) recordings of neurons on PA gels; format: cell-based, mouse; settings: neurons on gels up to one week; relative to E2 Filler PA
Experimental: Patch Clamp. Whole-cell current-clamp recordings were made from visually identified primary cultured neurons using inverted Olympus IX51 microscope equipped with a 40× objective. Recording pipettes were made of glass capillaries using a horizontal Sutter P-1000 puller yielding a 3-5 MΩ resistance pipette when filled with standard intracellular solution containing (in mM): 120 K-MeSO4, 10 KCl, 10 HEPES, 10 Na2-phosphocreatine, 4 Mg-ATP, 0.4 Na3-GTP, pH 7.3; 285-290 mOsm. Gels with neurons were continuously perfused with standard oxygenated aCSF bath solution (in mM): 125 NaCl, 26 NaHCO3, 2.5 KCl, 1.25 NaH2PO4, 1 MgSO4, 25 glucose, 2 CaCl2, pH 7.4 at 32-34° C. Whole-cell current-clamp data was acquired using an […] amplifier (Molecular Devices, USA) and digitized at 10 kHz (filtered at 3 kHz) with the neurons held at −65 mV. Resting membrane potential was measured immediately after breaking into the cell. Input resistance was calculated as the slope of the voltage-current curve using 500 ms current steps from −50 pA to 30 pA at 10 pA steps. There were no differences in resting membrane potentials or input resistance between the three groups. […] AP threshold was calculated where the first derivative of the up phase of the trace equals 5 mV/ms. […] Data was analyzed using MATLAB protocols designed specifically for these experiments.

[3] = tested on: mouse model of spinal cord injury; test: Mouse model of spinal cord injury, Basso Mouse Scale hind limb scoring; format: in vivo; settings: for hindlimb function: over 12 weeks, vs E2 PA or saline
Source text: The spinal cord injury procedures used follow a standardized protocol to ensure a reproducible injury. Mice were anesthetized and their back is opened to reveal the vertebral column. The vertebral bone at T11 was surgically removed to reveal the spinal cord tissue. The mice were then transferred the impactor machine which is used to inflict a compression injury on the exposed spinal cord. The spinal cord was held in place using stereotactic clamps. The instrument inflicts a force of 70-80 kDynes and dwells in the place of the impact for 60 seconds to simulate a crush injury accident. This injury is quite severe. After each impact was performed, the instrument supplies a graph corresponding to the real force and trajectory of the impactor. This graph is used to compare and ensure that all animals receive an injury of the same nature. After the injury is inflicted, the animals were closed and allowed to rest for 24 hours.
The next day, the animals were re-opened and prepared for the “treatment” surgery. Before beginning the procedure, all animals underwent a behavioral assessment and mice with hind limb movement were discarded from the study. When the animal is re-opened, there was typically a dark, bruised area apparent where the crush injury took place the previous day. This is where the treatment was injected. A Hamilton syringe attached to a glass-pulled needle with a diameter of ˜300 μm was used to puncture the bruised dermis of the tissue and the treatment was injected into the underlying tissue cavity. Treatment types include; saline, and the C16V2A2E2 (E2) non-bioactive PA gel as negative controls, as well as the BDNF PA co-assembled at 20 mol % with the E2 non-bioactive PA gel.
After injection, the animals were closed and returned to cages to recover. Over the next 12 weeks, blinded hind limb behavioral scoring was performed to assess any functional changes (FIG. 21). A standardized “Basso Mouse Scale” was used (Basso et al. J Neurotrauma. 2006 May; 23(5):635-59.; herein incorporated by reference in its entirety). Two blinded researchers were either side of a runway where the mouse was guided to move in a straight line. As the mouse walks, each researcher grades the limb movement. Any discrepancies in evaluation were re-evaluated by a third researcher. The score for the two limbs was averaged and marked as the score for that animal.

Compound: CCCCCCCCCCCCCCCC(=O)N[C@H](C(=O)N[C@H](C(=O)N[C@@H](C)C(=O)N[C@@H](C)C(=O)N[C@@H](CCC(=O)O)C(=O)N[C@@H](CCC(=O)O)C(=O)N[C@@H](CCC(=O)O)C(=O)N[C@@H](CCC(=O)O)C(=O)NCCOCCOCCOCCOCCOCCOCCC(=O)NCCCC[C@@H]1NC(=O)[C@H]2CCCN2C(=O)[C@H](CCCNC(=N)N)NC(=O)[C@H](CCCCN)NC(=O)[C@H](CCCCN)NC1=O)C(C)C)C(C)C [BDNF PA, RKK(aK)(dP)-(PEG6 Spacer)-EEEEAAVV-C16 (SEQ ID NO: 5)] (I: Palmitoyl-VVAAEEEE[PEG6] / II: cyclo(KKKR[dP]); amide I:C-II:1)
- distance that neurites infiltrated from the top of the scaffold [1]: 179.7±6.0 μm
- infiltration distance relative to all the other conditions [1]: nearly four-and-a-half times higher
- normalized average of MAP2 intensity [1]: 0.64±0.15
- number of action potentials [2]: higher number of action potentials
- final average limb behavioral score (Basso Mouse Scale) ([3]; 12 weeks after injury, BDNF PA co-assembled at 20 mol % with E2 PA gel, injected 24 h after injury): 3.7
- rate of hindlimb improvement ([3]; first three weeks following injury): increased rate of hindlimb improvement
- hindlimb function [3]: increased functional hind limb recovery
- hindlimb function ([3]; listed as BDNF mimetic PA): significant improvement in hindlimb function
